We go through 25 compounds from patent publication US11046700B2, “Substituted imidazo[1,2-a]pyrazines, pyrazolo[1,5-c]pyrimidines, pyrazolo[1,5-a]pyridines, and purines for the treatment of schistosomiasis” (Merck Patent GmbH, priority 2017, dated 2021).

Holding throughout (format): cell-based
The subject of series [1] is S. mansoni adult worms. The experiment in a line: In vitro assay, S. mansoni adult worms. As to conditions: Schistosoma mansoni, read-out: (a) Adult. As to the method:
(§1) The routine biological assays using adult or juvenile worms and cytotoxicity assays using MRC-5 cells have been disclosed previously in Mansour, N. R., et al. (2016). “High Throughput Screening Identifies Novel Lead Compounds with Activity against Larval, Juvenile and Schistosoma mansoni PLoS Negl Trap Dis 10(4): e0004659. Cytotoxicity assays using the HepG2 cell line were carried out as described in Molecular Diversity (2015) 19, 251-261.
(a) S. mansoni adult worms

The subject of series [2] is S. mansoni juvenile worms. The experiment in a line: In vitro assay, S. mansoni juvenile worms. As to conditions: Schistosoma mansoni, read-out: (b) Juvenile. As to the method: as §1
(b) S. mansoni juvenile worms

The subject of series [3] is HepG2 cell line. The experiment in a line: Cytotoxicity against human HepG2 cell lines.
The mark [4] stands for this setting: S. mansoni adult worms, in vitro.
The mark [5] stands for this setting: S. mansoni juvenile worms, in vitro.

pIC50: −log10 of the molar value. Like-named read-outs stand apart in the source and are kept apart here. A value given as a limit tells only on which side of the number the result lay.

`Fc1ccc(-c2cn3c(-c4ccc5[nH]ncc5c4F)c(C(F)(F)F)nc3cn2)cc1C1CC1` [Example 84, 6-(3-Cyclopropyl-4-fluoro-phenyl)-3-(4-fluoro-1H-indazol-5-yl)-2-trifluoromethyl-imidazo[1,2-a]pyrazine]: the results for the pIC50 in series [1] (setting [4]) and in series [2] (setting [5]) were 7.92 and 7.72, respectively. The “(e) Cytotox HepG2” value in series [3] was determined as 10.5 µM.
For `Fc1ccc(-c2cn3c(-c4ccc5[nH]ncc5c4F)c(C4CC4)nc3cn2)cc1S(F)(F)(F)(F)F` [Example 57, 2-Cyclopropyl-3-(4-fluoro-1H-indazol-5-yl)-6-(4-fluoro-3-pentafluorosulfanyl-phenyl)-imidazo[1,2-a]pyrazine] the same measures were 7.77, 7.52 and 14.8 µM.
For `CC(C)c1nn2cnc(-c3ccc(F)c(C(F)(F)C(F)(F)F)c3)cc2c1-c1ccc2[nH]ncc2c1F` [Example 58, 3-(4-Fluoro-1H-indazol-5-yl)-5-(4-fluoro-3-pentafluoroethyl-phenyl)-2-isopropylpyrazolo[1,5-c]pyrimidine], the pIC50 is 7.51 in series [1] (setting [4]) and 7.70 in series [2] (setting [5]). In series [3], the “(e) Cytotox HepG2” value is 10.8 µM.
On the same counts, the results for `CCc1nc2cnc(-c3ccc(F)c(C(C)C)c3)cn2c1-c1ccc2[nH]ncc2c1F` [Example 75, 2-Ethyl-3-(4-fluoro-1H-indazol-5-yl)-6-(4-fluoro-3-isopropyl-phenyl)-imidazo[1,2-a]pyrazine] are 8.40, 8.30 and 11.3 µM.
As to `Fc1ccc(-c2cn3c(-c4ccc5[nH]ncc5c4F)c(C(F)(F)F)nc3cn2)cc1OC(F)(F)F` [Example 71, 3-(4-Fluoro-1H-indazol-5-yl)-6-(4-fluoro-3-trifluoromethoxy-phenyl)-2-trifluoromethyl-imidazo[1,2-a]pyrazine], the results for the pIC50 in series [1] (setting [4]) and in series [2] (setting [5]) were 7.85 and 7.68, respectively. For the same compound, the “(e) Cytotox HepG2” value in series [3] is 12.2 µM.
In the case of `CC(C)c1cc(-c2cn3c(-c4ccc5[nH]ncc5c4F)c(C(C)C)nc3cn2)ccc1F` [Example 74, 3-(4-Fluoro-1H-indazol-5-yl)-6-(4-fluoro-3-isopropyl-phenyl)-2-isopropyl-imidazo[1,2-a]pyrazine], the figures for the pIC50 in series [1] (setting [4]) and in series [2] (setting [5]) were 8.40 and 8.30, respectively. Further, the “(e) Cytotox HepG2” value in series [3] was 11.0 µM.
`Fc1ccc(-c2cn3c(-c4ccc5[nH]ncc5c4F)c(C(F)(F)F)nc3cn2)cc1CC(F)(F)F` [Example 69, 3-(4-Fluoro-1H-indazol-5-yl)-6-[4-fluoro-3-(2,2,2-trifluoro-ethyl)-phenyl]-2-trifluoromethyl-imidazo[1,2-a]pyrazine]: the pIC50 in series [1] (setting [4]) was 7.92; in series [2] (setting [5]), 8.00. The “(e) Cytotox HepG2” value in series [3] is 5.3 µM.
For `CC(C)c1nc2cnc(-c3cccc(C(F)(F)F)c3)cn2c1-c1c(F)cc(O)cc1F` [Example 19, 3,5-difluoro-4-[2-(propan-2-yl)-6-[3-(trifluoromethyl)phenyl]imidazo[1,2-a]pyrazin-3-yl]phenol] the same measures were 7.38, 7.05 and 7.5 µM.
For the compound `CC1(c2nc3cnc(-c4ccc(F)c(C(F)(F)F)c4)cn3c2-c2c(F)cc(O)cc2F)CC1` [Example 33, 3,5-difluoro-4-[2-(1-methyl-cycloprop-1-yl)-6-[4-fluoro-3-(trifluoromethyl)phenyl]imidazo[1,2-a]pyrazin-3-yl]phenol], the pIC50 in series [1] (setting [4]) is 7.25; in series [2] (setting [5]), 7.10. For the same compound, in series [3], the “(e) Cytotox HepG2” value turned out to be 7.9 µM.
`COc1ccc(-c2c(C(F)(F)F)nc3cnc(-c4cccc(C(F)(F)C(F)(F)F)c4)cn23)cc1O` [Example 30, 2-methoxy-5-[2-(trifluoromethyl)-6-[3-(pentafluoroethyl)phenyl]imidazo[1,2-a]pyrazin-3-yl]phenol]: the pIC50 in series [1] (setting [4]) was 7.68; in series [2] (setting [5]), more than 7.92. Besides, the “(e) Cytotox HepG2” value in series [3] amounted to 11.1 µM.
Regarding `CCc1nc2cnc(-c3cccc(C(F)(F)C(F)(F)F)c3)cn2c1-c1c(F)cc(O)cc1F` [Example 52, 4-[2-Ethyl-6-(3-pentafluoroethyl-phenyl)-imidazo[1,2-a]pyrazin-3-yl]-3,5-difluoro-phenol], the pIC50 in series [1] (setting [4]) was more than 7.92; in series [2] (setting [5]), 8.00. Besides, the “(e) Cytotox HepG2” value in series [3] came to 8.0 µM.
On to `CC(C)c1nc2cnc(-c3ccc(F)c(C(F)(F)F)c3)cn2c1-c1c(F)cc(OP(=O)(O)O)cc1F` [Example 40, 3,5-difluoro-4-{6-[4-fluoro-3-(trifluoromethyl)phenyl]-2-(propan-2-yl)imidazo[1,2-a]pyrazin-3-yl}phenoxyphosphonic acid], for which the pIC50 was 7.57 in series [1] and 7.60 in series [2]. The “(e) Cytotox HepG2” value in series [3] amounted to 6.5 µM.
For `Cc1nc2cnc(-c3cccc(C(F)(F)C(F)(F)F)c3)cn2c1-c1c(F)cc(O)cc1F` [Example 49, 3,5-difluoro-4-[2-methyl-6-[3-(pentafluoroethyl)phenyl]imidazo[1,2-a]pyrazin-3-yl]phenol], the pIC50 was 7.47 in series [1] (setting [4]) and 7.46 in series [2] (setting [5]). Moreover, in series [3], the “(e) Cytotox HepG2” value was 9.3 µM.
With `CC(C)c1nc2cnc(-c3cccc(C(F)(F)F)c3)cn2c1-c1ccc(OP(=O)(O)O)cc1F` [Example 3, 3-fluoro-4-[2-(propan-2-yl)-6-[3-(trifluoromethyl)phenyl]imidazo[1,2-a]pyrazin-3-yl]phenoxyphosphonic acid], the pIC50 in series [1] is more than 7.31; in series [2], 6.89. The “(e) Cytotox HepG2” value in series [3] was found to be 9.2 µM.
`CCc1nc2cnc(-c3ccc(F)c(C(F)(F)F)c3)cn2c1-c1ccc2[nH]ncc2c1F` [Example 37, 4-fluoro-5-{2-ethyl-6-[4-fluoro-3-(trifluoromethyl)phenyl]imidazo[1,2-a]pyrazin-3-yl}-1H-indazole]: the pIC50 in series [2] (setting [5]) is 6.96. Also, the “(e) Cytotox HepG2” value in series [3] came to 13.1 µM.
Consider `CC(C)c1cc(-c2cn3c(-c4ccc5[nH]ncc5c4Cl)c(C(F)(F)F)nc3cn2)ccc1F` [Example 83, 3-(4-Chloro-1H-indazol-5-yl)-6-(4-fluoro-3-isopropyl-phenyl)-2-trifluoromethyl-imidazo[1,2-a]pyrazine], for which the pIC50 was more than 7.92 in series [1] (setting [4]) and 7.82 in series [2] (setting [5]). Moreover, in series [3], the “(e) Cytotox HepG2” value was 6.6 µM.
As for `CC(C)c1nc2cnc(-c3cccc(C(F)(F)F)c3)nc2n1-c1ccc(O)cc1F` [Example 90, 3-fluoro-4-[8-(propan-2-yl)-2-[3-(trifluoromethyl)phenyl]-9H-purin-9-yl]phenol], the values for the pIC50 in series [1] (setting [4]) and in series [2] (setting [5]) were 7.11 and 6.33, respectively. The “(e) Cytotox HepG2” value in series [3] was determined as 9.3 µM.
On to `CC(C)c1cc(-c2cn3c(-c4ccc5[nH]ncc5c4F)c(C4CCC4)nc3cn2)ccc1F` [Example 77, 2-Cyclobutyl-3-(4-fluoro-1H-indazol-5-yl)-6-(4-fluoro-3-isopropyl-phenyl)-imidazo[1,2-a]pyrazine], for which the pIC50 in series [1] (setting [4]) is 8.15; in series [2] (setting [5]) it was 8.40. The “(e) Cytotox HepG2” value in series [3] was found to be 10.8 µM.
On the same counts, the results for `CC(C)Oc1cc(-c2cn3c(-c4ccc5[nH]ncc5c4F)c(C(F)(F)F)nc3cn2)ccc1F` [Example 81, 3-(4-Fluoro-1H-indazol-5-yl)-6-(4-fluoro-3-isopropoxy-phenyl)-2-trifluoromethyl-imidazo[1,2-a]pyrazine] are 7.96, 7.92 and 9.2 µM.
On to `CC(C)c1cc(-c2cn3c(-c4ccc5[nH]ncc5c4F)c(C4CC4)nc3cn2)ccc1F` [Example 79, 2-Cyclopropyl-3-(4-fluoro-1H-indazol-5-yl)-6-(4-fluoro-3-isopropyl-phenyl)-imidazo[1,2-a]pyrazine], for which the pIC50 in series [1] (setting [4]) and in series [2] (setting [5]) was 8.30 throughout. For the same compound, the “(e) Cytotox HepG2” value in series [3] is 15.7 µM.
As to `Fc1c(-c2c(C(F)(F)F)nc3cnc(-c4ccnc(C(F)(F)F)c4)cn23)ccc2[nH]ncc12` [Example 88, 3-(4-Fluoro-1H-indazol-5-yl)-2-trifluoromethyl-6-(2-trifluoromethyl-pyridin-4-yl)-imidazo[1,2-a]pyrazine], the pIC50 is 6.94 in series [1] (setting [4]) and 6.85 in series [2] (setting [5]). In addition, the “(e) Cytotox HepG2” value in series [3] turned out to be 7.0 µM.
For `CC(C)c1nn2cnc(-c3ccc(F)c(C(F)(F)F)c3)cc2c1-c1c(F)cc(O)cc1F` [Example 47, 3,5-difluoro-4-(5-(4-fluoro-3-(trifluoromethyl)phenyl)-2-isopropylpyrazolo[1,5-c]pyrimidin-3-yl)phenol] the same measures were 7.66, 7.57 and 8.9 µM.
For the compound `O=P(O)(O)Oc1cc(F)c(-c2c(C3CC3)nc3cnc(-c4ccc(F)c(C(F)(F)F)c4)cn23)c(F)c1` [Example 62, Phosphoric acid mono-{4-[2-cyclopropyl-6-(4-fluoro-3-trifluoromethyl-phenyl)-imidazo[1,2-a]pyrazin-3-yl]-3,5-difluoro-phenyl}ester], in series [2], the pIC50 is 8.43. Further, in series [3], the “(e) Cytotox HepG2” value worked out at 14.8 µM.
`Cc1nc2cnc(-c3ccc(F)c(C(F)(F)F)c3)cn2c1-c1c(F)cc(OP(=O)(O)O)cc1F` [Example 41, 3,5-difluoro-4-{6-[4-fluoro-3-(trifluoromethyl)phenyl]-2-methyl-imidazo[1,2-a]pyrazin-3-yl}phenoxyphosphonic acid]: the pIC50 in series [2] was 7.00. The “(e) Cytotox HepG2” value in series [3] was determined as 6.8 µM.
As to `Cc1nc2cnc(-c3cccc(C(F)(F)F)c3)cn2c1-c1c(F)cc(O)cc1F` [Example 15, 3,5-difluoro-4-[2-methyl-6-[3-(trifluoromethyl)phenyl]imidazo[1,2-a]pyrazin-3-yl]phenol], the pIC50 in series [2] (setting [5]) was 6.77. Further, the “(e) Cytotox HepG2” value in series [3] is 8.4 µM.
